Measurements published in US20240116856A1 (Young BioPharma, LLC, priority 2020, published 2024).
Values after ≈ are worked out from the molar mass of the structure shown. Read-outs that look alike come from different tables or passages of the source.

Legend:
OVCAR-8 = experiment: Human cancer cell growth inhibition assay (ATP assay), OVCAR-8; assay type: cell-based; conditions: Homo sapiens, OVCAR-8, 96 h; 4 days; Means±SEM from three independent experiments; read-out: OVCAR-8, IC50
OVCAR-8 cell invasion = experiment: Cancer cell invasion assay, OVCAR-8; assay type: cell-based, human; conditions: 24 h
Description: (§1) A cancer cell invasion assay was developed based on literature protocols (Methods 2005, 37, 208; EMBO J 2002, 21, 6289; Cellular Signalling 2012, 24, 1276.). Membrane matrix gel (Cat #A1413201, ThermoFisher) was diluted in ice-cold, serum-free RPMI 1640 Medium (Cat #31800022, ThermoFisher) at a concentration of 0.5-0.6 mg/mL. Then it was added to the upper compartment (100 μL per cup) of millicell inserts (Cat #PI8P01250, ThermoFisher) placed in a 24-well plate (Part no. 229123, Celltreat). The plate was incubated at 37° C. for 2 h to allow the liquid gel to solidify. RPMI 1640 Medium supplemented with 10% FBS (300 μL) was added to the well of the plate (lower compartment) as attractant, then DMSO or compounds were added. Human cancer cells (1×10^5 cells in 200 μL of RPMI 1640 Medium) were added to the upper compartment of the insert, then DMSO or compounds were added. After the plate was incubated at 37° C. for 24 h, the cells were fixed on the lower side of the insert membrane with 4% formaldehyde and stained with 1% crystal violet (Part no. IS12146, Innovating Science). The invaded cells on the lower side of the filter were counted under an inverted microscope equipped with either a 4× or a 10× objective (FIG. 11). The cell numbers from 5 random views were averaged and plotted as percentage against the DMSO control (FIG. 12A).

[1] = Scoville Heat Units, cited from earlier work
[2] = system: Src protein activation in OVCAR-8 cells; experiment: Cancer cell immunocytochemistry assay, Phospho-Src (Y416), OVCAR-8; assay type: cell-based, human; conditions: YB-1 15 μM, capsaicin 50 μM, 1-6 h
Description: (§2) Human cancer cells (15,000 cells/well) in 96 well half area microplate (Cat #3882, Corning) were incubated overnight at 37° C., then compounds or DMSO control were added to the cell culture and incubated at 37° C. for 1-6 h. The cells were sequentially fixed with 4% formalin, permeabilized with 0.5% Triton X-100, blocked with 5% BSA in PBS, incubated with Human Phospho-Src (Y416) Antibody (Cat #MAB2685, R&D Systems) at rt for 2 h, incubated with the secondary antibody Goat Ant-Rabbit IgG H&L (Alexa Fluor 488) (Cat #ab150077, abeam) for 45 min, and incubated with DAPI (Cat #D9542, Sigma-Aldrich) for 5 min. Finally, the cells were washed and covered with PBS. The cell images were visualized on an inverted fluorescence microscope (Leica DMIL Fluorescent Inverted Microscope with Digital Camera, Leica Microsystems). Pictures were taken [FIGS. 14A-C. Green: Human Phospho-Src (Y416), the activated form of the Src protein; Blue: DAPI (stain nucleus of cell)]. The fluorescence intensity values from 5 random cells were averaged, subtracted by the background value (area between cells) and the blank value [the blank control without the Human Phospho-Src (Y416) Antibody], then plotted as percentage against the DMSO control to indicate the effects of compound treatment on the cellular Src kinase phosphorylation levels in the cancer cells (FIGS. 15A-D).

NCI-H460 = experiment: Human cancer cell growth inhibition assay (ATP assay), NCI-H460; assay type: cell-based; conditions: Homo sapiens, NCI-H460, 96 h; 4 days; Means±SEM from three independent experiments; read-out: NCl-H460, IC50
[3] = background; cited from earlier work
MDA-MB-231 cell invasion = experiment: Cancer cell invasion assay, MDA-MB-231; assay type: cell-based, human; conditions: 24 h
In short: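 Transwell inserts were coated with membrane matrix gel (0.5-0.6 mg/mL) and loaded with 1×10^5 human cancer cells in RPMI 1640, with 10% FBS medium below as attractant. Compound or DMSO went into both compartments for 24 h at 37 °C. Invaded cells were fixed, crystal-violet stained, counted in 5 random fields and expressed as % of DMSO control.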

human TRPA1 = molecular target: T1, human TRPA1 (Homo sapiens, UniProt O75762); experiment: In vitro Ca2+ flux counter-screen in human TRPA1 overexpressing cells; assay type: cell-based; conditions: counter-screen; read-out: TRPA1 EC50
T1 construct: expressed in transfected cells; host or cells: overexpressing cells
T1 sequence (O75762 whole entry): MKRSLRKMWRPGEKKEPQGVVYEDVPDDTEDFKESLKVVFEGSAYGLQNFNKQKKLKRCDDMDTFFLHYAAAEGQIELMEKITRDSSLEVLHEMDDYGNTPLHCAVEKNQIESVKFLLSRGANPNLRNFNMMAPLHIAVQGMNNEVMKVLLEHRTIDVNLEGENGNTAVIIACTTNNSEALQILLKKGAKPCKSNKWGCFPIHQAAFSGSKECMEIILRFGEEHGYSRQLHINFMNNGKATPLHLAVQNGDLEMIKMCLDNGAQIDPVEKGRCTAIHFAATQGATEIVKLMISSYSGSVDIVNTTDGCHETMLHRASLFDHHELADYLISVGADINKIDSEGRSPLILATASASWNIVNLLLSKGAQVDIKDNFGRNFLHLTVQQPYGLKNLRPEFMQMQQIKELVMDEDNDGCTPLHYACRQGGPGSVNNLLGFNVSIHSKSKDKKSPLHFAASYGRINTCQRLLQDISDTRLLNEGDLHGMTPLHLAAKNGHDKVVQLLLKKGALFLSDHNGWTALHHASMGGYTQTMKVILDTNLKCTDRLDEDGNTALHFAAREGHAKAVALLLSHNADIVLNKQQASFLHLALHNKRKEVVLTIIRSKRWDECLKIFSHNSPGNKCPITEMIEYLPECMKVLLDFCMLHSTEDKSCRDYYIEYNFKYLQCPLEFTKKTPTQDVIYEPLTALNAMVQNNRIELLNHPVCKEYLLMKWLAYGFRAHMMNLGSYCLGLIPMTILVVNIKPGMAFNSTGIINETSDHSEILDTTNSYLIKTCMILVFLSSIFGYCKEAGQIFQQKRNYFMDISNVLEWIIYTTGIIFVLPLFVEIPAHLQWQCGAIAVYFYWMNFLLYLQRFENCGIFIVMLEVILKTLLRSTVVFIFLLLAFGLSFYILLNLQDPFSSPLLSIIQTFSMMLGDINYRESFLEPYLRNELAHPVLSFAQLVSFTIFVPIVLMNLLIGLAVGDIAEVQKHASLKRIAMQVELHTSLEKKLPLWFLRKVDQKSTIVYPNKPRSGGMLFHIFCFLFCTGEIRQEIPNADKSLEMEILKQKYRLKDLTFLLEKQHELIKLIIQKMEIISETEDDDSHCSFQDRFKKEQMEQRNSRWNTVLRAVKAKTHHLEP

NCI-H460 cell invasion = experiment: Cancer cell invasion assay, NCI-H460; assay type: cell-based, human; conditions: 24 h
Description: as §1

[4] = system: Src protein activation in NCI-H460 cells; experiment: Cancer cell immunocytochemistry assay, Phospho-Src (Y416), NCI-H460; assay type: cell-based, human; conditions: YB-1 15 μM, capsaicin 50 μM, 1-6 h
Description: as §2

Aqueous solubility = assay type: physicochemical
Description: Chemical analysis and solubility tests were performed blind to the identity of the samples. Intermediates and final analogs were analyzed by NMR (JEOL 400 MHz NMR) and HPLC/MS (Waters Acquity UPLC with SQD Mass Spec) to confirm structures and purity. Final compounds were purified to achieve >95% purity based on HPLC analysis.

[5] = Operant Pain Tolerance Assay; assay type: in vivo; conditions: intraplantar
Description: Model 3—The ability of YB-16 to increase pain tolerance was tested using a newly published Operant Pain Tolerance Assay (eNeuro 2020, 7, ENEURO.0210-19.2020). In the assay, mice were trained to seek a sucrose reward that was on a hot 42° C. plate (versus no reward on a neutral 30° C. plate). It was noticed that intraplantar YB-16 treated mice with paw inflammatory injury [induced by Complete Freund's adjuvant (CFA) 24 hrs prior to treatment] trended to spend 145% more time on the hot side of the assay but not necessarily additional time near the sucrose bottle compared to vehicle treated mice (FIG. 10B).

[6] = Rodent eye wiping assay (pungency)

COc1cc(CNC(=O)CCCC/C=C/C(C)C)ccc1O [Capsaicin, trans-8-methyl-N-vanillyl-6-nonenamide, reference compound]
IC50 (OVCAR-8): 234 ± 31 µM | inhibition of OVCAR-8 cell invasion (OVCAR-8 cell invasion): dose-dependently inhibited | Pungency (SHU) [1]: 16,000,000 SHU | Pungency (SHU) ([1]; listed as capsaicin): 16.0 million | cellular Src kinase phosphorylation levels [2]: time-dependently reduced the cellular Src kinase phosphorylation levels | IC50 (NCI-H460): 200 ± 65 µM | solubility in water [3]: 13 µg/mL (≈ 42.6 µM) | inhibition of MDA-MB-231 cell invasion (MDA-MB-231 cell invasion): dose-dependently inhibited | EC50 (human TRPA1): > 10 µM | inhibition of NCI-H460 cell invasion (NCI-H460 cell invasion): dose-dependently inhibited | cellular Src kinase phosphorylation levels [4]: time-dependently reduced the cellular Src kinase phosphorylation levels | solubility (Aqueous solubility): 13 µg/mL (≈ 42.6 µM) | sedation in operant pain tolerance assay [5]: inflammatory injury with sedation | sensitivity to hot plate after inflammatory injury ([5]; paw inflammatory injury (CFA)): Weak trend for reduced sensitivity to | MPP ([6]; Moderate Pain-Producing Potency concentration: dose producing 10 normalized eye wipes): 0.041 mg/mL | Pungency RPP ([6]; Relative Pain-Producing Potency with Capsaicin set to 100): 100 | Pungency RPP ([6]; Table 3 comparison, Capsaicin set to 100): 100
